Experimental data published in the kinase profiling compilation of Christmann-Franck et al. (2016).

Legend:
Test in all cases: radiometric filter-binding kinase assay, Kinase HotSpot
Conditions in all cases: compound 0.5 µM; ATP 10 µM
MATK (human) = MATK (human) (UniProt P42679)
ADRBK2 (human) = ADRBK2 (human) (UniProt P35626)
PRKCB1 (human) = PRKCB1 (human) (UniProt P05771)
GRK5 (human) = GRK5 (human) (UniProt P34947)
STK25 (human) = STK25 (human) (UniProt O00506)
PTK6 (human) = PTK6 (human) (UniProt Q13882)
TYRO3 (human) = TYRO3 (human) (UniProt Q06418)
NTRK3 (human) = NTRK3 (human) (UniProt Q16288)
PLK2 (human) = PLK2 (human) (UniProt Q9NYY3)
MAPK10 (human) = MAPK10 (human) (UniProt P53779)
MAPK14 (human) = MAPK14 (human) (UniProt Q16539)
FGR (human) = FGR (human) (UniProt P09769)
ALK (human) = ALK (human) (UniProt Q9UM73)
HIPK4 (human) = HIPK4 (human) (UniProt Q8NE63)
CSF1R (human) = CSF1R (human) (UniProt P07333)
CAMK1D (human) = CAMK1D (human) (UniProt Q8IU85)
PRKCZ (human) = PRKCZ (human) (UniProt Q05513)
NTRK2 (human) = NTRK2 (human) (UniProt Q16620)
PAK6 (human) = PAK6 (human) (UniProt Q9NQU5)
PRKCB2 (human) = PRKCB2 (human) (UniProt P05771)
EPHA5 (human) = EPHA5 (human) (UniProt P54756)
CSNK1G2 (human) = CSNK1G2 (human) (UniProt P78368)
ROCK2 (human) = ROCK2 (human) (UniProt O75116)
Sequence of ROCK2 (human) (O75116 whole entry, looked up): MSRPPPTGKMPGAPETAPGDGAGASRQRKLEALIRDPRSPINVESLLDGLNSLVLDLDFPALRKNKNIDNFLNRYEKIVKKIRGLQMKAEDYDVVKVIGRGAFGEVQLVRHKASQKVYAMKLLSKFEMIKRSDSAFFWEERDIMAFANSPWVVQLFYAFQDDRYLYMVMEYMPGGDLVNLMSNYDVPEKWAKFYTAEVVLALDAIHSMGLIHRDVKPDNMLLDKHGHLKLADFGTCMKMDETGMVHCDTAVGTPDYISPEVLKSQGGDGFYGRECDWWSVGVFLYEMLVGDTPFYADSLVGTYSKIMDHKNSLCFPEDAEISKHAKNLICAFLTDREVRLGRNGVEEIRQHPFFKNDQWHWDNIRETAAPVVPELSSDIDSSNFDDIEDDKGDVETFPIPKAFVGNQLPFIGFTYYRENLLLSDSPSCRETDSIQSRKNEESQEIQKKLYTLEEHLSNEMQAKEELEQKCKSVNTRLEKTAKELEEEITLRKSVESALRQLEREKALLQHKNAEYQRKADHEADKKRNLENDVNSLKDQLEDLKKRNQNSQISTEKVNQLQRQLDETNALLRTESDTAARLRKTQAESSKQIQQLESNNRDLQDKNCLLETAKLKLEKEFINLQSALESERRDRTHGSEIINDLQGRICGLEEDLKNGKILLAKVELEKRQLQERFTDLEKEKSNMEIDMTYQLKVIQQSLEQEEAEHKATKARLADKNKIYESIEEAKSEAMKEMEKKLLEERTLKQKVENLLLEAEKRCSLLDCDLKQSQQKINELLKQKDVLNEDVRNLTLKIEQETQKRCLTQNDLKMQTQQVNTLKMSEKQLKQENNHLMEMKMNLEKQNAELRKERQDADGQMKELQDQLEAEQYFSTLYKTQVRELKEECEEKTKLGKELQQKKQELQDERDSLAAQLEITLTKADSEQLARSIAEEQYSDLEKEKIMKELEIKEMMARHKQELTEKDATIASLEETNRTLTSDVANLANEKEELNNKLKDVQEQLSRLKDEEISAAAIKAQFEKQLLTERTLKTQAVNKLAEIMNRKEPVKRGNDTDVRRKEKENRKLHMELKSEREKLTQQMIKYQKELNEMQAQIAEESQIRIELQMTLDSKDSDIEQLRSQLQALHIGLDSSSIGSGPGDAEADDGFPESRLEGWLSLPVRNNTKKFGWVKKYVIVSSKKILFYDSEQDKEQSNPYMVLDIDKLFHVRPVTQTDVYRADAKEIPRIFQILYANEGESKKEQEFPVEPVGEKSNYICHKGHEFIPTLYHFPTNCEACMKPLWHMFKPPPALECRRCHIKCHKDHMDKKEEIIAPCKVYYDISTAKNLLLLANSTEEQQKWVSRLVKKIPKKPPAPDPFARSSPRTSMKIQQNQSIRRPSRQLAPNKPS

EPHA2 (human) = EPHA2 (human) (UniProt P29317)
IKBKE (human) = IKBKE (human) (UniProt Q14164)
PTK2B (human) = PTK2B (human) (UniProt Q14289)
Sequence of PTK2B (human) (Q14289 whole entry, looked up): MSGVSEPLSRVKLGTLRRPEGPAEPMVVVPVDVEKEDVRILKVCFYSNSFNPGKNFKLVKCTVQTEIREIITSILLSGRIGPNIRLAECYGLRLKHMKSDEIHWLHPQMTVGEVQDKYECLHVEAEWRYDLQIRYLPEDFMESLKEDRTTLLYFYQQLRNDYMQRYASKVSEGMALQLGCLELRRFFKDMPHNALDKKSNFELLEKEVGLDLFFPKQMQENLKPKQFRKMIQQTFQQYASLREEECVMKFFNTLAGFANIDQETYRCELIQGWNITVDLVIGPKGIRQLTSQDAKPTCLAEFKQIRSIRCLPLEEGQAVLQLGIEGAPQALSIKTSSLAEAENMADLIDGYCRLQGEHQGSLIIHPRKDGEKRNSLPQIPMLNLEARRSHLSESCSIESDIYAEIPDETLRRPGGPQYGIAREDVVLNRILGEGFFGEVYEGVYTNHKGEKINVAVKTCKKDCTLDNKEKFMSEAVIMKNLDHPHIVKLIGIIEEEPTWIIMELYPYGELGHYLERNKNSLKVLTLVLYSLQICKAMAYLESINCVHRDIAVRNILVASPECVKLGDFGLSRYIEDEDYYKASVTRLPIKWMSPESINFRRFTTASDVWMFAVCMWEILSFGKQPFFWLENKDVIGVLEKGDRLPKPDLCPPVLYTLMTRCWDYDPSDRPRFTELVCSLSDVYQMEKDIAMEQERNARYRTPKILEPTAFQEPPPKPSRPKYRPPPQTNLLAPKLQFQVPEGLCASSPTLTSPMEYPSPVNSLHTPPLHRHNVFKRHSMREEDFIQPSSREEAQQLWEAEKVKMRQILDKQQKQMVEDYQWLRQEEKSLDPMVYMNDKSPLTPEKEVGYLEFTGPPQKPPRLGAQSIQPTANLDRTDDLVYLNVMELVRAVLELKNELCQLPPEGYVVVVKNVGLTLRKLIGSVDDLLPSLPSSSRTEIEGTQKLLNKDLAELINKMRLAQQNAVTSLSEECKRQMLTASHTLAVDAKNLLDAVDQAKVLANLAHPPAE

CHEK2 (human) = CHEK2 (human) (UniProt O96017)
FER (human) = FER (human) (UniProt P16591)
CLK2 (human) = CLK2 (human) (UniProt P49760)
MAP3K14 (human) = MAP3K14 (human) (UniProt Q99558)
TTK (human) = TTK (human) (UniProt P33981)
MAPK13 (human) = MAPK13 (human) (UniProt O15264)
NUAK1 (human) = NUAK1 (human) (UniProt O60285)
RPS6KA3 KD1 KD2 (human) = RPS6KA3 KD1 KD2 (human) (UniProt P51812)
PRKD1 (human) = PRKD1 (human) (UniProt Q15139)
NUAK2 (human) = NUAK2 (human) (UniProt Q9H093)
MAPK8 (human) = MAPK8 (human) (UniProt P45983)
Sequence of MAPK8 (human) (P45983 whole entry, looked up): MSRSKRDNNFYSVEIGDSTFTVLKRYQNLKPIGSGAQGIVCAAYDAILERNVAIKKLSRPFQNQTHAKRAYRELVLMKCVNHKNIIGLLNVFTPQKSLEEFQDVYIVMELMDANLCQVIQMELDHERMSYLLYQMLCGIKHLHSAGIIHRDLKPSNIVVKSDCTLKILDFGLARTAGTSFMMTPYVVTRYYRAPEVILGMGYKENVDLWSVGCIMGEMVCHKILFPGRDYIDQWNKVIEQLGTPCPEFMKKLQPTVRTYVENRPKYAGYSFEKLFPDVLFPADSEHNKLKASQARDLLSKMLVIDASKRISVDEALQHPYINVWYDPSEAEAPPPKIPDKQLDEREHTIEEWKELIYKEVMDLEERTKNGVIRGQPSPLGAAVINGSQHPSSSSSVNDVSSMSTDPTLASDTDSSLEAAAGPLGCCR

WNK2 (human) = WNK2 (human) (UniProt Q9Y3S1)
CDK6 CCND3 (human) = CDK6 CCND3 (human) (UniProt P30281+Q00534)
Sequence of CDK6 CCND3 (human) (P30281 whole entry, looked up): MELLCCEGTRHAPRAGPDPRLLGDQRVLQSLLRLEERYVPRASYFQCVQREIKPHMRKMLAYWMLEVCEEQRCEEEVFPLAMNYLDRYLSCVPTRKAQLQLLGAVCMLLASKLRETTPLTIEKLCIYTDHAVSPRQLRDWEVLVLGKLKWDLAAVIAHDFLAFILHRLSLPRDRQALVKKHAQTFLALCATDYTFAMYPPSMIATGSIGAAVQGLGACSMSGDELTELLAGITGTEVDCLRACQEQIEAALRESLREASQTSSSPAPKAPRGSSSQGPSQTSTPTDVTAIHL
Sequence of CDK6 CCND3 (human) (Q00534 whole entry, looked up): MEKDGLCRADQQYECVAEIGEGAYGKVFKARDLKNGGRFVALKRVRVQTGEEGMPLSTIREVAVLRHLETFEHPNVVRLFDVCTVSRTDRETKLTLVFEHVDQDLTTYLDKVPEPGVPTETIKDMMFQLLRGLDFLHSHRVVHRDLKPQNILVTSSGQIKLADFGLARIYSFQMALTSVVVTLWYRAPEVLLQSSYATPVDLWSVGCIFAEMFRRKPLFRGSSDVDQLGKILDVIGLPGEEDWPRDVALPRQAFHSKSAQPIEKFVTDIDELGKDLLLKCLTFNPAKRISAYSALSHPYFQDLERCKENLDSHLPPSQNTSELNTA

AKT3 (human) = AKT3 (human) (UniProt Q9Y243)
CDK1 CCNB1 (human) = CDK1 CCNB1 (human) (UniProt P06493+P14635)
Sequence of CDK1 CCNB1 (human) (P06493 whole entry, looked up): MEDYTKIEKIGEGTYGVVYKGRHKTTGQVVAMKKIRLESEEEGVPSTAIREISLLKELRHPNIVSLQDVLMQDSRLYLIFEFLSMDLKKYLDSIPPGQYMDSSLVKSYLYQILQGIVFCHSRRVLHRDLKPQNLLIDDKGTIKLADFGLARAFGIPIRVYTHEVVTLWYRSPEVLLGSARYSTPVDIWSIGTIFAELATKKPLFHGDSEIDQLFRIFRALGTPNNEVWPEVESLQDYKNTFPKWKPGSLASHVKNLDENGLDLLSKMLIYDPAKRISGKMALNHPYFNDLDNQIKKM
Sequence of CDK1 CCNB1 (human) (P14635 whole entry, looked up): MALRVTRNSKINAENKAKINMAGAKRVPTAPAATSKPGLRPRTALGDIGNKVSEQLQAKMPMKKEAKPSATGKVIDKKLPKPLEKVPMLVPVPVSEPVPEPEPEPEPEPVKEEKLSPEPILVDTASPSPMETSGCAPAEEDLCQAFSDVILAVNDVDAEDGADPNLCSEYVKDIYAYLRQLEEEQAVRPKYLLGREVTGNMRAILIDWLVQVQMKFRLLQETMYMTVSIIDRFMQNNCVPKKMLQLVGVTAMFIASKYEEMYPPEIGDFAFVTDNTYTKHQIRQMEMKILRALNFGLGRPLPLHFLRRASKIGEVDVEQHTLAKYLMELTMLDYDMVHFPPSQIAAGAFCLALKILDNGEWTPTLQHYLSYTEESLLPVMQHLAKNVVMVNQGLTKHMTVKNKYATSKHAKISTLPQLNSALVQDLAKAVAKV

CDK1 CCNA2 (human) = CDK1 CCNA2 (human) (UniProt P06493+P20248)
Sequence of CDK1 CCNA2 (human) (P06493 whole entry, looked up): as the sequence (P06493 whole entry, looked up) above
Sequence of CDK1 CCNA2 (human) (P20248 whole entry, looked up): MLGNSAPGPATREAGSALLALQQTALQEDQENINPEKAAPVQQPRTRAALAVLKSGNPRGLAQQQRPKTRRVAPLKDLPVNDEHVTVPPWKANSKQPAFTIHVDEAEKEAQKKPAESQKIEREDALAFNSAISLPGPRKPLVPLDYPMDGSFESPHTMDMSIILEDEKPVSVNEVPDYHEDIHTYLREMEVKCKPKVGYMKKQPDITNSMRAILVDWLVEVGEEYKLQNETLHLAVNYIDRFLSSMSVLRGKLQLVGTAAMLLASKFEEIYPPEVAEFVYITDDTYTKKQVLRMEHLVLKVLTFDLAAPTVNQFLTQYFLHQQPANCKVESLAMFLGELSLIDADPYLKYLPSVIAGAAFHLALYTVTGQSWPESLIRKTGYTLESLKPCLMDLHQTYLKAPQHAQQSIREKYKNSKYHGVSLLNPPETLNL

SMILES: CC(C)[C@H](CO)Nc1nc(Nc2cc(N)cc(Cl)c2)c2ncn(C(C)C)c2n1
- residual activity (MATK (human)): 111%
- residual activity (ADRBK2 (human)): 97.1%
- residual activity (PRKCB1 (human)): 98.8%
- residual activity (GRK5 (human)): 101%
- residual activity (STK25 (human)): 81.8%
- residual activity (PTK6 (human)): 85.6%
- residual activity (TYRO3 (human)): 103%
- residual activity (NTRK3 (human)): 4.42%
- residual activity (PLK2 (human)): 92%
- residual activity (MAPK10 (human)): 94.6%
- residual activity (MAPK14 (human)): 98.9%
- residual activity (FGR (human)): 15%
- residual activity (ALK (human)): 79.6%
- residual activity (HIPK4 (human)): 96.4%
- residual activity (CSF1R (human)): 71.1%
- residual activity (CAMK1D (human)): 103%
- residual activity (PRKCZ (human)): 101%
- residual activity (NTRK2 (human)): 3.04%
- residual activity (PAK6 (human)): 57.3%
- residual activity (PRKCB2 (human)): 97.3%
- residual activity (EPHA5 (human)): 64%
- residual activity (CSNK1G2 (human)): 35.2%
- residual activity (ROCK2 (human)): 101%
- residual activity (EPHA2 (human)): 67.5%
- residual activity (IKBKE (human)): 88.4%
- residual activity (PTK2B (human)): 63.6%
- residual activity (CHEK2 (human)): 96.3%
- residual activity (FER (human)): 54.9%
- residual activity (CLK2 (human)): 17.7%
- residual activity (MAP3K14 (human)): 100%
- residual activity (TTK (human)): 84.5%
- residual activity (MAPK13 (human)): 101%
- residual activity (NUAK1 (human)): 61.5%
- residual activity (RPS6KA3 KD1 KD2 (human)): 54.1%
- residual activity (PRKD1 (human)): 94.2%
- residual activity (NUAK2 (human)): 81.4%
- residual activity (MAPK8 (human)): 93.4%
- residual activity (WNK2 (human)): 112%

SMILES: CN([C@@H](Cc1ccc(OS(=O)(=O)c2cccc3cnccc23)cc1)C(=O)N1CCN(c2ccccc2)CC1)S(=O)(=O)c1cccc2cnccc12
- residual activity (MATK (human)): 94.8%
- residual activity (ADRBK2 (human)): 113%
- residual activity (PRKCB1 (human)): 95.9%
- residual activity (GRK5 (human)): 95.6%
- residual activity (STK25 (human)): 98.8%
- residual activity (PTK6 (human)): 89.7%
- residual activity (TYRO3 (human)): 101%
- residual activity (NTRK3 (human)): 97.5%
- residual activity (PLK2 (human)): 102%
- residual activity (MAPK10 (human)): 88.2%
- residual activity (MAPK14 (human)): 91%
- residual activity (FGR (human)): 99.5%
- residual activity (ALK (human)): 96.5%
- residual activity (HIPK4 (human)): 105%
- residual activity (CDK6 CCND3 (human)): 105%
- residual activity (AKT3 (human)): 104%
- residual activity (CSF1R (human)): 95.1%
- residual activity (CAMK1D (human)): 101%
- residual activity (PRKCZ (human)): 101%
- residual activity (NTRK2 (human)): 103%
- residual activity (CDK1 CCNB1 (human)): 108%
- residual activity (PAK6 (human)): 102%
- residual activity (EPHA5 (human)): 102%
- residual activity (CSNK1G2 (human)): 100%
- residual activity (ROCK2 (human)): 105%
- residual activity (EPHA2 (human)): 101%
- residual activity (IKBKE (human)): 92.6%
- residual activity (PTK2B (human)): 103%
- residual activity (CHEK2 (human)): 101%
- residual activity (FER (human)): 100%
- residual activity (CLK2 (human)): 93%
- residual activity (MAP3K14 (human)): 90.7%
- residual activity (TTK (human)): 86%
- residual activity (MAPK13 (human)): 102%
- residual activity (NUAK1 (human)): 97.5%
- residual activity (RPS6KA3 KD1 KD2 (human)): 98.6%
- residual activity (PRKD1 (human)): 101%
- residual activity (NUAK2 (human)): 88.7%
- residual activity (MAPK8 (human)): 94.6%
- residual activity (WNK2 (human)): 100%

SMILES: O=C1NC(=O)C(c2cn(CCCO)c3ncccc23)=C1c1cnccn1
- residual activity (MATK (human)): 95.5%
- residual activity (ADRBK2 (human)): 99.9%
- residual activity (GRK5 (human)): 116%
- residual activity (STK25 (human)): 78.9%
- residual activity (PTK6 (human)): 101%
- residual activity (TYRO3 (human)): 93.7%
- residual activity (NTRK3 (human)): 79.7%
- residual activity (PLK2 (human)): 104%
- residual activity (MAPK10 (human)): 88%
- residual activity (MAPK14 (human)): 107%
- residual activity (FGR (human)): 108%
- residual activity (ALK (human)): 105%
- residual activity (HIPK4 (human)): 104%
- residual activity (CDK6 CCND3 (human)): 84.4%
- residual activity (AKT3 (human)): 101%
- residual activity (CSF1R (human)): 98.4%
- residual activity (CAMK1D (human)): 95.1%
- residual activity (PRKCZ (human)): 88.5%
- residual activity (NTRK2 (human)): 99.7%
- residual activity (CDK1 CCNA2 (human)): 91.8%
- residual activity (CDK1 CCNB1 (human)): 81.1%
- residual activity (PAK6 (human)): 78.2%
- residual activity (EPHA5 (human)): 99.4%
- residual activity (CSNK1G2 (human)): 66%
- residual activity (ROCK2 (human)): 96%
- residual activity (EPHA2 (human)): 105%
- residual activity (IKBKE (human)): 90%
- residual activity (PTK2B (human)): 94%
- residual activity (CHEK2 (human)): 97.7%
- residual activity (FER (human)): 99.2%
- residual activity (CLK2 (human)): 98.9%
- residual activity (MAP3K14 (human)): 78.1%
- residual activity (TTK (human)): 94.5%
- residual activity (MAPK13 (human)): 96.5%
- residual activity (NUAK1 (human)): 59.4%
- residual activity (RPS6KA3 KD1 KD2 (human)): 91.3%
- residual activity (PRKD1 (human)): 107%
- residual activity (NUAK2 (human)): 92.3%
- residual activity (MAPK8 (human)): 99.6%
- residual activity (WNK2 (human)): 104%

SMILES: O=C1Cc2c([nH]c3ccc(Br)cc23)-c2ccccc2N1
- residual activity (MATK (human)): 93.6%
- residual activity (ADRBK2 (human)): 109%
- residual activity (PRKCB1 (human)): 93.1%
- residual activity (GRK5 (human)): 97%
- residual activity (STK25 (human)): 98.8%
- residual activity (PTK6 (human)): 87.7%
- residual activity (TYRO3 (human)): 97.7%
- residual activity (NTRK3 (human)): 70.7%
- residual activity (PLK2 (human)): 99.1%
- residual activity (MAPK10 (human)): 89.6%
- residual activity (MAPK14 (human)): 93%
- residual activity (FGR (human)): 74.4%
- residual activity (ALK (human)): 90.8%
- residual activity (HIPK4 (human)): 105%
- residual activity (CDK6 CCND3 (human)): 94.4%
- residual activity (AKT3 (human)): 105%
- residual activity (CSF1R (human)): 92.6%
- residual activity (CAMK1D (human)): 112%
- residual activity (PRKCZ (human)): 98.3%
- residual activity (NTRK2 (human)): 95%
- residual activity (CDK1 CCNA2 (human)): 88.5%
- residual activity (CDK1 CCNB1 (human)): 80.6%
- residual activity (PAK6 (human)): 97.8%
- residual activity (PRKCB2 (human)): 102%
- residual activity (EPHA5 (human)): 96.6%
- residual activity (CSNK1G2 (human)): 102%
- residual activity (ROCK2 (human)): 84.6%
- residual activity (EPHA2 (human)): 98.3%
- residual activity (IKBKE (human)): 89.8%
- residual activity (PTK2B (human)): 102%
- residual activity (CHEK2 (human)): 59%
- residual activity (FER (human)): 89.7%
- residual activity (CLK2 (human)): 95.7%
- residual activity (MAP3K14 (human)): 106%
- residual activity (TTK (human)): 80.9%
- residual activity (MAPK13 (human)): 103%
- residual activity (NUAK1 (human)): 14.6%
- residual activity (PRKD1 (human)): 101%
- residual activity (NUAK2 (human)): 71.1%
- residual activity (MAPK8 (human)): 87.5%
- residual activity (WNK2 (human)): 112%

SMILES: COc1ccc(CNC(=O)Nc2ncc([N+](=O)[O-])s2)cc1
- residual activity (MATK (human)): 96.6%
- residual activity (ADRBK2 (human)): 112%
- residual activity (PRKCB1 (human)): 103%
- residual activity (GRK5 (human)): 104%
- residual activity (STK25 (human)): 98.6%
- residual activity (PTK6 (human)): 99.6%
- residual activity (TYRO3 (human)): 100%
- residual activity (NTRK3 (human)): 98.7%
- residual activity (PLK2 (human)): 104%
- residual activity (MAPK10 (human)): 96.1%
- residual activity (MAPK14 (human)): 104%
- residual activity (FGR (human)): 92.4%
- residual activity (ALK (human)): 100%
- residual activity (HIPK4 (human)): 103%
- residual activity (CDK6 CCND3 (human)): 99.1%
- residual activity (AKT3 (human)): 95.9%
- residual activity (CSF1R (human)): 99.2%
- residual activity (CAMK1D (human)): 112%
- residual activity (PRKCZ (human)): 96.3%
- residual activity (NTRK2 (human)): 85.6%
- residual activity (CDK1 CCNA2 (human)): 93.4%
- residual activity (CDK1 CCNB1 (human)): 85.1%
- residual activity (PAK6 (human)): 106%
- residual activity (PRKCB2 (human)): 103%
- residual activity (EPHA5 (human)): 117%
- residual activity (CSNK1G2 (human)): 100%
- residual activity (ROCK2 (human)): 99.8%
- residual activity (EPHA2 (human)): 100%
- residual activity (IKBKE (human)): 99.8%
- residual activity (PTK2B (human)): 83.1%
- residual activity (CHEK2 (human)): 99.2%
- residual activity (FER (human)): 101%
- residual activity (CLK2 (human)): 97.4%
- residual activity (MAP3K14 (human)): 84.2%
- residual activity (TTK (human)): 98.9%
- residual activity (MAPK13 (human)): 91.1%
- residual activity (NUAK1 (human)): 99.7%
- residual activity (PRKD1 (human)): 104%
- residual activity (NUAK2 (human)): 89.9%
- residual activity (MAPK8 (human)): 104%
- residual activity (WNK2 (human)): 104%
